Data reported in PubChem BioAssay (NCI).
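In this assay, cells in 96-well plates receive the compound at five concentrations for 48 hours. Endpoints are linearly interpolated between the surrounding concentrations. GI50 marks 50% less growth. The concentration for full growth arrest is given as TGI.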

What was measured:
Assay in all cases: DTP human tumour cell line panel, 48 h; in the data active = GI50 below about 0.43 µM; inactive = the rest
CCRF-CEM leukemia = test system: CCRF-CEM leukemia
MCF7 breast = test system: MCF7 breast
MDA-MB-231 breast = test system: MDA-MB-231 breast
OVCAR-3 ovarian = test system: OVCAR-3 ovarian
OVCAR-4 ovarian = test system: OVCAR-4 ovarian
SF-539 CNS = test system: SF-539 CNS
SN12C renal = test system: SN12C renal
T-47D breast = test system: T-47D breast
UACC-62 melanoma = test system: UACC-62 melanoma
HOP-92 NSCLC = test system: HOP-92 NSCLC

Nc1ccc(Nc2cc(=O)[nH]c(=O)[nH]2)cc1
> 100 µM: TGI (CCRF-CEM leukemia) | TGI (MCF7 breast) | TGI (MDA-MB-231 breast) | TGI (OVCAR-3 ovarian) | TGI (OVCAR-4 ovarian) | TGI (SF-539 CNS) | TGI (SN12C renal) | TGI (T-47D breast) | TGI (UACC-62 melanoma)

COc1ccc2nc3c(c(NCCCN(C)C)c2c1)CCCC3
31.2 µM: TGI (UACC-62 melanoma)
21.1 µM: TGI (HOP-92 NSCLC)
30.8 µM: TGI (SF-539 CNS)
47.2 µM: TGI (SN12C renal)
51.4 µM: TGI (OVCAR-3 ovarian)
28.3 µM: TGI (CCRF-CEM leukemia)
18.5 µM: TGI (OVCAR-4 ovarian)

C=C[C@@]1(O)CCCC[C@@H]1CC(Sc1ccccc1)Sc1ccccc1
27.8 µM: TGI (T-47D breast)
32.9 µM: TGI (OVCAR-4 ovarian)
> 100 µM: TGI (CCRF-CEM leukemia) | TGI (MCF7 breast) | TGI (UACC-62 melanoma)
33.2 µM: TGI (MDA-MB-231 breast)
34.3 µM: TGI (SN12C renal)

Cc1ccc(-c2nnc(CCCCCCCCc3nnc(-c4ccc(C)cc4O)n3N)n2N)c(O)c1
> 100 µM: TGI (HOP-92 NSCLC) | TGI (MCF7 breast) | TGI (MDA-MB-231 breast) | TGI (OVCAR-3 ovarian) | TGI (OVCAR-4 ovarian) | TGI (SF-539 CNS) | TGI (SN12C renal) | TGI (T-47D breast) | TGI (UACC-62 melanoma)

O=C1Nc2cc([N+](=O)[O-])c(Br)cc2C1=O
32.1 µM: TGI (CCRF-CEM leukemia) | TGI (OVCAR-3 ovarian)
42.4 µM: TGI (UACC-62 melanoma)
41 µM: TGI (SF-539 CNS)
43.1 µM: TGI (HOP-92 NSCLC)
32.7 µM: TGI (SN12C renal)
30.5 µM: TGI (OVCAR-4 ovarian)

Cc1ccc(-n2cc(-c3ccc(Cl)cc3)c3c(NN)ncnc32)cc1
26.6 µM: TGI (T-47D breast)
11.3 µM: TGI (SF-539 CNS)
13.9 µM: TGI (SN12C renal)
9.04 µM: TGI (HOP-92 NSCLC)
19.2 µM: TGI (OVCAR-4 ovarian)
> 100 µM: TGI (MDA-MB-231 breast)
2.52 µM: TGI (CCRF-CEM leukemia)
12.8 µM: TGI (OVCAR-3 ovarian)
13.2 µM: TGI (UACC-62 melanoma)

O=[N+]([O-])c1ccc2oc(=Nc3ccccc3)c(Nc3ccccc3)nc2c1
> 100 µM: TGI (CCRF-CEM leukemia) | TGI (MDA-MB-231 breast) | TGI (OVCAR-4 ovarian) | TGI (SF-539 CNS) | TGI (SN12C renal) | TGI (T-47D breast) | TGI (UACC-62 melanoma)
93 µM: TGI (HOP-92 NSCLC)

O=S(=O)(c1ccc(-c2nnc(-c3ccc(F)cc3)o2)cc1)c1ccc(-c2nnc(-c3ccc(F)cc3)o2)cc1
> 100 µM: TGI (CCRF-CEM leukemia) | TGI (HOP-92 NSCLC) | TGI (MCF7 breast) | TGI (OVCAR-3 ovarian) | TGI (OVCAR-4 ovarian) | TGI (SF-539 CNS) | TGI (SN12C renal) | TGI (T-47D breast) | TGI (UACC-62 melanoma)

COc1ccccc1N=Nc1c(O)c(S(=O)(=O)O)cc2cc(S(=O)(=O)O)ccc12
> 100 µM: TGI (CCRF-CEM leukemia) | TGI (HOP-92 NSCLC) | TGI (MDA-MB-231 breast) | TGI (OVCAR-3 ovarian) | TGI (OVCAR-4 ovarian) | TGI (SN12C renal) | TGI (T-47D breast) | TGI (UACC-62 melanoma)

C=C(C)C1CC/C(C)=C/CC[C@]2(C)O[C@@H]2CCC2=CC1OC2=O (some centres undefined)
inactive: GI50 (CCRF-CEM leukemia) 10.3 µM | GI50 (HOP-92 NSCLC) 14.4 µM | GI50 (MCF7 breast) > 100 µM | GI50 (OVCAR-4 ovarian) > 100 µM | GI50 (SN12C renal) 78.8 µM | GI50 (T-47D breast) 18.5 µM | GI50 (UACC-62 melanoma) 78.8 µM
21.9 µM: TGI (CCRF-CEM leukemia)
> 100 µM: TGI (HOP-92 NSCLC) | TGI (MCF7 breast) | TGI (OVCAR-4 ovarian) | TGI (SN12C renal) | TGI (T-47D breast) | TGI (UACC-62 melanoma)

CCOC(=O)c1cc2c(OCc3ccccc3)c(OC)cc3c2c(n1)N(c1ccc(OC)cc1)C(C)C3 (centres undefined)
> 50 µM: TGI (CCRF-CEM leukemia) | TGI (OVCAR-3 ovarian) | TGI (OVCAR-4 ovarian) | TGI (SN12C renal) | TGI (UACC-62 melanoma)
42.9 µM: TGI (HOP-92 NSCLC)

O=NN(CCF)C(=O)NC1CC2CCC1C2 (centres undefined)
> 100 µM: TGI (CCRF-CEM leukemia) | TGI (HOP-92 NSCLC) | TGI (MCF7 breast) | TGI (OVCAR-3 ovarian) | TGI (OVCAR-4 ovarian) | TGI (SF-539 CNS) | TGI (SN12C renal) | TGI (UACC-62 melanoma)

Cc1cn(C2CC(CCCO)C(CO)O2)c(=O)[nH]c1=O (centres undefined)
inactive: GI50 (CCRF-CEM leukemia) > 100 µM
> 100 µM: TGI (CCRF-CEM leukemia) | TGI (OVCAR-3 ovarian) | TGI (OVCAR-4 ovarian) | TGI (SN12C renal) | TGI (UACC-62 melanoma)

CCC(COC(=O)CC[C@@H](NC(=O)C(C)NC(=O)C(C)OC1C(O)C(CO)OC(OCc2ccccc2)C1NC(C)=O)C(N)=O)NC1c2ccccc2Nc2cccc([N+](=O)[O-])c21 (some centres undefined)
> 100 µM: TGI (CCRF-CEM leukemia) | TGI (HOP-92 NSCLC) | TGI (OVCAR-3 ovarian) | TGI (OVCAR-4 ovarian) | TGI (SF-539 CNS) | TGI (SN12C renal) | TGI (UACC-62 melanoma)

COC(=O)C(=O)C(C(=O)C(=O)Nc1cccc([N+](=O)[O-])c1)c1nc2ccc(Cl)cc2[nH]c1=O (centres undefined)
> 100 µM: TGI (CCRF-CEM leukemia) | TGI (HOP-92 NSCLC) | TGI (MCF7 breast) | TGI (MDA-MB-231 breast) | TGI (OVCAR-3 ovarian) | TGI (OVCAR-4 ovarian) | TGI (SF-539 CNS) | TGI (SN12C renal) | TGI (UACC-62 melanoma)

NC(=O)c1cc(N(CCO)CCO)c([N+](=O)[O-])cc1[N+](=O)[O-]
> 100 µM: TGI (CCRF-CEM leukemia) | TGI (HOP-92 NSCLC) | TGI (MCF7 breast) | TGI (OVCAR-3 ovarian) | TGI (OVCAR-4 ovarian) | TGI (SF-539 CNS) | TGI (SN12C renal) | TGI (T-47D breast) | TGI (UACC-62 melanoma)

O=C(Sc1c(-c2ccccc2)c(=O)n(-c2ccccc2)c(=S)n1-c1ccccc1)c1cccs1
97.8 µM: TGI (CCRF-CEM leukemia)
> 100 µM: TGI (HOP-92 NSCLC) | TGI (MCF7 breast) | TGI (OVCAR-3 ovarian) | TGI (OVCAR-4 ovarian) | TGI (SN12C renal) | TGI (T-47D breast)

Cc1ccnc2nc(N)ccc12
> 100 µM: TGI (CCRF-CEM leukemia) | TGI (MDA-MB-231 breast) | TGI (OVCAR-4 ovarian) | TGI (SF-539 CNS) | TGI (SN12C renal) | TGI (T-47D breast) | TGI (UACC-62 melanoma)

CN(C)c1ccc(/C=C/C(=O)N[C@@H]2C(=O)N3[C@@H]2SC(C)(C)[C@@H]3C(=O)O)cc1
> 100 µM: TGI (CCRF-CEM leukemia) | TGI (MCF7 breast) | TGI (MDA-MB-231 breast) | TGI (OVCAR-3 ovarian) | TGI (OVCAR-4 ovarian) | TGI (SF-539 CNS) | TGI (SN12C renal) | TGI (T-47D breast) | TGI (UACC-62 melanoma)

O=C1C=C2CCC[C@H]3OC(=O)C[C@@]23CC1
> 100 µM: TGI (HOP-92 NSCLC) | TGI (MDA-MB-231 breast) | TGI (OVCAR-3 ovarian) | TGI (OVCAR-4 ovarian) | TGI (SF-539 CNS) | TGI (SN12C renal) | TGI (T-47D breast) | TGI (UACC-62 melanoma)

Cc1cccc2nc3c(=O)[nH]c(=O)nc-3n(C)c12
> 100 µM: TGI (CCRF-CEM leukemia) | TGI (MCF7 breast) | TGI (MDA-MB-231 breast) | TGI (OVCAR-3 ovarian) | TGI (OVCAR-4 ovarian) | TGI (SF-539 CNS) | TGI (SN12C renal) | TGI (T-47D breast) | TGI (UACC-62 melanoma)

Nc1cccc(S(=O)(=O)Nc2nnc(S(N)(=O)=O)s2)c1
> 100 µM: TGI (HOP-92 NSCLC) | TGI (MCF7 breast) | TGI (MDA-MB-231 breast) | TGI (OVCAR-3 ovarian) | TGI (OVCAR-4 ovarian) | TGI (SF-539 CNS) | TGI (T-47D breast) | TGI (UACC-62 melanoma)

CCOC(=O)CCC1(C(=O)OCC)CCCC1=O (centres undefined)
> 100 µM: TGI (CCRF-CEM leukemia) | TGI (HOP-92 NSCLC) | TGI (OVCAR-3 ovarian) | TGI (OVCAR-4 ovarian) | TGI (SF-539 CNS) | TGI (SN12C renal) | TGI (UACC-62 melanoma)

COc1cc(C2C(Cl)C(=O)N2NC(=O)c2ccc(NC(C)=O)cc2)ccc1O (centres undefined)
> 100 µM: TGI (CCRF-CEM leukemia) | TGI (HOP-92 NSCLC) | TGI (OVCAR-3 ovarian) | TGI (OVCAR-4 ovarian) | TGI (SF-539 CNS) | TGI (SN12C renal) | TGI (UACC-62 melanoma)
